Data set [1] can be described thus: AUC in Swiss mouse plasma. Format: ADME.
The nature of data set [2]: Tmax in Swiss mouse brain. Type of data set: ADME, tissue-based.
A short description of data set [3]: Cmax in Swiss mouse plasma. Format: ADME.
Data set [4] can be described thus: Tmax in Swiss mouse plasma. Format: ADME.
A short description of data set [5]: AUC in Swiss mouse brain. Type of data set: ADME, organism-based.
The nature of data set [6]: Half life in Swiss mouse plasma. Type of data set: ADME.
Data set [7] can be described thus: Cmax in Swiss mouse brain. Type of data set: ADME, tissue-based.
Data set [8] concerns Mus musculus. Briefly: Inverse agonist activity at histamine H3 receptor in po dosed Swiss mouse assessed as release of N-tele-methylhistamine in brain after 90 mins by enzyme-immunoassay. Format: functional. To be noted: 1.5 h.
Data set [9] in a line: Half life in Swiss mouse brain. Format: ADME, tissue-based.
Data set [10] can be described thus: Half life of the compound. Type of data set: physicochemical.
Data set [11] deals with Histamine H3 receptor (Homo sapiens, UniProt Q9Y5N1). Briefly: Displacement of [125I]-iodoproxyfan from human recombinant histamine H3 receptor expressed in HEK293 cells after 1 hr by gamma counting analysis. Format: cell-based. Background: Displacement assays read how much labelled ligand stays bound in the presence of the test substance.
A short description of data set [12]: AUC (0 to 8 hrs) in Swiss mouse plasma at 10 mg/kg, po by […] analysis. Type of data set: ADME, organism-based. Details: time < 8 hr, dose 10 mg/kg, route oral.
The target of another data set is Cytochrome P450 3A4 (Homo sapiens, UniProt P08684). Briefly: Inhibition of human recombinant CYP3A4. Format: ADME.
Data set [13] has as its target Histamine H3 receptor (Mus musculus, UniProt P58406). Briefly: Displacement of [125I]-iodoproxyfan from histamine H3 receptor in mouse brain cortex after 1 hr by gamma counting analysis. Format: tissue-based.
The next data set addresses Cytochrome P450 2D6 (Homo sapiens, UniProt P10635). Briefly: Inhibition of human recombinant CYP2D6. Type of data set: ADME.
Data set [14] concerns the target Voltage-gated inwardly rectifying potassium channel KCNH2 (Homo sapiens, UniProt Q12809). The data set is described as follows: Binding affinity to human ERG.
Data set [15] is described as follows: AUC (0 to 8 hrs) in Swiss mouse brain at 10 mg/kg, po by […] analysis. Format: ADME, organism-based. Details: time < 8 hr, dose 10 mg/kg, route oral.
For data set [16], the system named is Mus musculus. Briefly: Inverse agonist activity at histamine H3 receptor in po dosed Swiss mouse assessed as release of N-tele-methylhistamine in brain after 90 mins by enzyme-immunoassay relative to ciproxifan. Type of data set: functional.
The next data set concerns the target Cytochrome P450 2C9 (Homo sapiens, UniProt P11712). Briefly: Inhibition of human recombinant CYP2C9. Type of data set: ADME.

Histamine H3 receptor (Homo sapiens, UniProt Q9Y5N1), sequence (Q9Y5N1 whole entry): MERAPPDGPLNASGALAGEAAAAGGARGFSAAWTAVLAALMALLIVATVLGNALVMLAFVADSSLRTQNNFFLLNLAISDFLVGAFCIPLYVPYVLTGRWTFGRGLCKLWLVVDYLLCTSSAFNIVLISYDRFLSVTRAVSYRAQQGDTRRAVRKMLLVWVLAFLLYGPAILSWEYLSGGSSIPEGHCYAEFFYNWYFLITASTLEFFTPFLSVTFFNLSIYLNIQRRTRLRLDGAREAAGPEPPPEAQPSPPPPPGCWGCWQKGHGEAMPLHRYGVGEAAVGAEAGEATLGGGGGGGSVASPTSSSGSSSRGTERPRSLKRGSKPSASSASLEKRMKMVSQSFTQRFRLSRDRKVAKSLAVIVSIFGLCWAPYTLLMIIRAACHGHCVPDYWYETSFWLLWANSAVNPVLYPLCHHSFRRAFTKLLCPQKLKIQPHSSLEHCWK
Histamine H3 receptor (Mus musculus, UniProt P58406), sequence (P58406 whole entry): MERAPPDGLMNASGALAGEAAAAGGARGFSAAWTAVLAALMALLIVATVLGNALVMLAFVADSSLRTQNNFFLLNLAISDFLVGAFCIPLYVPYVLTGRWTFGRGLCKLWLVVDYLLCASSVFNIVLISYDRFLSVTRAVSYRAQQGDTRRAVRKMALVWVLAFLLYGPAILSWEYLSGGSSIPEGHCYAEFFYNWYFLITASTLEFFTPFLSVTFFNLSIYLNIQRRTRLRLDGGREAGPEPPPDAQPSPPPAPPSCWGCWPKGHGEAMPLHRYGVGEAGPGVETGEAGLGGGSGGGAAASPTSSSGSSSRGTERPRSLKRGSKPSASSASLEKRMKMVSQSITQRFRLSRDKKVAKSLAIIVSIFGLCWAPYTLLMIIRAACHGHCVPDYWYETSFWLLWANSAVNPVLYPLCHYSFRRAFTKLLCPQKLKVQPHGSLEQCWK
Voltage-gated inwardly rectifying potassium channel KCNH2, sequence (Q12809 whole entry): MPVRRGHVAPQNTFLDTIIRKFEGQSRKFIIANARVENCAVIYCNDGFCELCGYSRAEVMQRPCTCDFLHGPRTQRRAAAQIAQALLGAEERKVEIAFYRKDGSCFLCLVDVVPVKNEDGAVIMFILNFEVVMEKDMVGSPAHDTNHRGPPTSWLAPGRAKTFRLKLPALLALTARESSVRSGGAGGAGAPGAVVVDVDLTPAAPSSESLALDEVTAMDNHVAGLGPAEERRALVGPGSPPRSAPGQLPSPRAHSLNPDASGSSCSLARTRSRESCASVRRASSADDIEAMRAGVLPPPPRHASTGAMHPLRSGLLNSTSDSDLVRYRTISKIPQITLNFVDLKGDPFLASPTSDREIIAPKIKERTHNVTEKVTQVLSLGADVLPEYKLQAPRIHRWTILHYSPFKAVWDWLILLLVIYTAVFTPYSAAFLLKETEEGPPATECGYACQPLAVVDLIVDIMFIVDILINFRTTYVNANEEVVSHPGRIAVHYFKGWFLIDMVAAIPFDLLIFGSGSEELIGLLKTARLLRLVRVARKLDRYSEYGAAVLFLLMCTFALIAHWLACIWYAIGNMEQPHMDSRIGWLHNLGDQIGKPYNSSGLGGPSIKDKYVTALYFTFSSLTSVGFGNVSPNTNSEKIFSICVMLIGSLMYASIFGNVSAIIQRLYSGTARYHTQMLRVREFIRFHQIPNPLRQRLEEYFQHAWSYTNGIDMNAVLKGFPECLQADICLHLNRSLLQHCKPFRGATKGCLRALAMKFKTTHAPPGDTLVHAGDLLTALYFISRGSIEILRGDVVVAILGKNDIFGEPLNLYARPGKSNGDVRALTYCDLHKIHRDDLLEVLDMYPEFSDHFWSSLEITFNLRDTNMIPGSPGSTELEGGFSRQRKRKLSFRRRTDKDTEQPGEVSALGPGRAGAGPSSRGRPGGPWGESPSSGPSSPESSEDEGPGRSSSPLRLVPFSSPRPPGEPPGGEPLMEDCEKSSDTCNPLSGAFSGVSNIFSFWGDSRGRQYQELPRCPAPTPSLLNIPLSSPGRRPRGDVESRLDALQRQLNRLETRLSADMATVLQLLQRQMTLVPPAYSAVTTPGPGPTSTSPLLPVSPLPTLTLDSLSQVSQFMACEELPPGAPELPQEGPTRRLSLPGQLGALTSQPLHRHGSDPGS
Cytochrome P450 2D6, sequence (P10635 whole entry): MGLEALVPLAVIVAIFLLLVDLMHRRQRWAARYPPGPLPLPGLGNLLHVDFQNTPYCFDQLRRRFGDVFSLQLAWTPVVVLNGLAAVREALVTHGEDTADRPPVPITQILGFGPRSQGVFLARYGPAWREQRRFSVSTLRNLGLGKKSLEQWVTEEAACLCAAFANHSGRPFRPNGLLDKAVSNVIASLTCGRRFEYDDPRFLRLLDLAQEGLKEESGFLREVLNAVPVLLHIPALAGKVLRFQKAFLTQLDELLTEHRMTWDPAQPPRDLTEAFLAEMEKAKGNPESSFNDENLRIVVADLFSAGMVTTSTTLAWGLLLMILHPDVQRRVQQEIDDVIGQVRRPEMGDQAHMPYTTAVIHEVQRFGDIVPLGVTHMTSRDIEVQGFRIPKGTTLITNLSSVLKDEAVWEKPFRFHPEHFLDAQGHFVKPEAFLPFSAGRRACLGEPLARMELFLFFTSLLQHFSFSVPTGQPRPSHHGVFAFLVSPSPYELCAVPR
Cytochrome P450 3A4, sequence (P08684 whole entry): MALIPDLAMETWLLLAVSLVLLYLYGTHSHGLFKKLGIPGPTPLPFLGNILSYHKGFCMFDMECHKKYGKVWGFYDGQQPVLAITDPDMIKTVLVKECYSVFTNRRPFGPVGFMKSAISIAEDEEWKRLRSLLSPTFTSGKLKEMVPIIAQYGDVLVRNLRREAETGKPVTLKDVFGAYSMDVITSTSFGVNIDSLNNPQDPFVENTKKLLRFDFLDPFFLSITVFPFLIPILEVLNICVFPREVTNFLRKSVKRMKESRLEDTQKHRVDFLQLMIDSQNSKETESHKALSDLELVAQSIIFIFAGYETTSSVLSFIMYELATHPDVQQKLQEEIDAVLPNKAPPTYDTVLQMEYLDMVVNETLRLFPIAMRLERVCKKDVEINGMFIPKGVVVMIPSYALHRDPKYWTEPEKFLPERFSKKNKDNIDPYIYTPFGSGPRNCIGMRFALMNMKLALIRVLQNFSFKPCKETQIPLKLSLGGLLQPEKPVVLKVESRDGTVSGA
Cytochrome P450 2C9, sequence (P11712 whole entry): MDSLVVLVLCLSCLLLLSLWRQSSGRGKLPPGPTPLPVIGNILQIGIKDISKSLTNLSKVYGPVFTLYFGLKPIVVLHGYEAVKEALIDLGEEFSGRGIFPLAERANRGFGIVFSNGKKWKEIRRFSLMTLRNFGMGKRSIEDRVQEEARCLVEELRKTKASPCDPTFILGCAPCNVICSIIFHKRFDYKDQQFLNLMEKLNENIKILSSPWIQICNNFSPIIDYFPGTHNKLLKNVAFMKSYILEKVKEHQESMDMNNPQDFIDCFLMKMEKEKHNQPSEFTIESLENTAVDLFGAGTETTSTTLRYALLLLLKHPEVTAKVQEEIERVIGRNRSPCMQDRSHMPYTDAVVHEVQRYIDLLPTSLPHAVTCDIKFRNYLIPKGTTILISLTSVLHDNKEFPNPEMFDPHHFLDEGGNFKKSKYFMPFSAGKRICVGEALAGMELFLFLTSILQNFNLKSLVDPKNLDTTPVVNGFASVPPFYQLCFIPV

By AUC is commonly meant concentration integrated over time. A high value points to high exposure. As a reminder, the Tmax is the time at which the peak concentration occurs. In general, Cmax refers to the maximum level reached in the sampled fluid or tissue. In general, half-life refers to the time in which the quantity being followed falls by half. A lower half-life goes with rapid decline. What is called ED50 is the midpoint of the dose-response relation. `c1cc([C@H]2CC[C@H](N3CCOCC3)CC2)ccc1OCCCN1CCCCC1`: the AUC in [1] was found to be 2110 ng·h/mL; in data set [5] it was 15600 ng·h/mL. The Tmax in data set [2] and in data set [4] was 1.5 h in each case. Besides, the Cmax worked out at 357 ng/mL in data set [3] and 2380 ng/mL in data set [7]. The half-life in data set [6] is 300 min; in [9], more than 600 min. In addition, in the data set on Mus musculus [8], the ED50 came to 1.3 mg/kg.
In [10], `COCCCS(=O)(=O)c1ccc(-c2ccc(CCN3CCC[C@H]3C)cc2)cc1` gave a half-life of 3000 min.
One may read the Ki as a dissociation constant, usually derived from enzyme kinetics or from competition with a known ligand. Turning to `OC1(c2ccc(OCCCN3CCCCC3)cc2)CCOCC1`, at Histamine H3 receptor [11], the Ki was 4.1 nM.
On the same count and under the same terms, for `OC(c1ccc(OCCCN2CCCCC2)cc1)C1CCCCC1` (stereo unspecified) the value was 2.9 nM; for `OC(c1ccc(OCCCN2CCCCC2)cc1)C1CCOCC1` (stereo unspecified), 13 nM.
Same read-out and setting: for `OCCc1ccc(OCCCN2CCCCC2)cc1` the value was 32 nM; for `CC(O)CCc1ccc(OCCCN2CCCCC2)cc1` (stereo unspecified), 3.3 nM; for `CC(C)(O)CCc1ccc(OCCCN2CCCCC2)cc1`, 4 nM.
Same read-out and setting: for `OCC#Cc1ccc(OCCCN2CCCCC2)cc1` the value was 15 nM; for `OCCC#Cc1ccc(OCCCN2CCCCC2)cc1`, 19 nM.
What is called AUC(0-t) is the area under the concentration-time curve up to a stated or last time point. A low value points to low exposure. As a reminder, the IC50 is the concentration needed to halve the response being measured. In the case of `O[C@H]1CC[C@H](c2ccc(OCCCN3CCCCC3)cc2)CC1`, the AUC(0-t) at 8 h amounted to 4980 ng·h/mL in [12] and 18000 ng·h/mL in data set [15]. In addition, the IC50 was 30.3 µM at Cytochrome P450 3A4, more than 100 µM on Cytochrome P450 2D6 and 40.3 µM on Cytochrome P450 2C9. For the same compound, the Ki came out at 6.9 nM on Histamine H3 receptor [13], 5.8 µM in data set [14] and 2.6 nM on Histamine H3 receptor [11]. Further, the Ratio with Mus musculus [16] was determined as 1. For the same compound, the ED50 with Mus musculus [8] was 0.3 mg/kg.
Regarding `OC1CCC(Cc2ccc(OCCCN3CCCCC3)cc2)CC1` (stereo unspecified), the Ki at Histamine H3 receptor [13] worked out at 6.3 nM; on Histamine H3 receptor [11] it was 1.9 nM.
As for `OCc1ccc(OCCCN2CCCCC2)cc1`, at Histamine H3 receptor [11], the Ki was found to be 22.7 nM.
Still for that read-out and setting: for `CC(C)(O)c1ccc(OCCCN2CCCCC2)cc1` the value was 6.8 nM.
`C=CC(O)c1ccc(OCCCN2CCCCC2)cc1` (stereo unspecified): the figures for the Ki at Histamine H3 receptor [13] and on Histamine H3 receptor [11] were 18 nM and 8.6 nM, respectively.
With `C=CCC(O)c1ccc(OCCCN2CCCCC2)cc1` (stereo unspecified), the Ki at Histamine H3 receptor [11] is 6.9 nM.
With `CCC(O)(CC)c1ccc(OCCCN2CCCCC2)cc1`, the figures for the Ki on Histamine H3 receptor [13] and on Histamine H3 receptor [11] were 14 nM and 1.4 nM, respectively.
In the case of `CCCC(O)(CCC)c1ccc(OCCCN2CCCCC2)cc1`, at Histamine H3 receptor [13], the Ki was determined as 2.5 nM.
As for `C=CCC(O)(CC=C)c1ccc(OCCCN2CCCCC2)cc1`, the Ki on Histamine H3 receptor [13] was 4.3 nM; on Histamine H3 receptor [11] it was 0.54 nM.
Take `OC1(c2ccc(OCCCN3CCCCC3)cc2)CCC1`: the Ki on Histamine H3 receptor [11] was determined as 18 nM.
`OC1(c2ccc(OCCCN3CCCCC3)cc2)CCCC1` had a Ki on Histamine H3 receptor [13] of 7.6 nM.
As to `OC1(c2ccc(OCCCN3CCCCC3)cc2)CCCCC1`, the Ki on Histamine H3 receptor [11] was determined as 3.9 nM.
For the compound `OC1CCN([C@H]2CC[C@H](c3ccc(OCCCN4CCCCC4)cc3)CC2)CC1` (mixture of isomers), the AUC in [1] and in data set [5] was 1520 ng·h/mL each time. Moreover, the Tmax is 3 h in [2] and 1.5 h in [4]. In addition, the figures for the Cmax in data set [3] and in [7] were 399 ng/mL and 215 ng/mL, respectively. Also, the half-life is 360 min in [6] and more than 600 min in [9].
